# Results reported in patent US6469051B2, “Diaminorhodamine derivative” (priority 1997, dated 2002).
# Key:
# [1] = tested on: Vascular smooth muscle cells derived from rat arota; experiment: Imaging of nitric oxide produced by vascular smooth muscle cells; type: cell-based
# Description: The normal lines represent fluorescence intensity of each cell and bold lines represent the averages thereof.
# Vascular smooth muscle cells derived from rat arota were cultured in a glass bottom dish, and stimulated with LPS (12.5 μg/ml), […] (150 U/ml), IL-1β (25 U/ml) and TNF-α (30 ng/ml) to induce a nitric oxide synthase. The culture was continued for about 12 hours, and then the culture medium was changed to Krebs-Ringer-phosphate buffer (KRP) in which DAR-1EE was dissolved (Example 2, 10 μM) to allow uptake of […] by the cells. The cells were cultured at 37° C. for 1 hour, and washed, and the culture medium was changed to KRP in which L-Arg or L-NMMA was dissolved. Changes in intracellular fluorescence with time was observed under a fluorescence microscope (Ex. 530-560 nm, Em. 550-610 nm, magnification: ×20).
# [2] = Fluorescence maximum wavelengths; type: physicochemical
# From the text: Maximum wavelengths: Ex. 565 nm-Em. 580 nm
# [3] = Changes in sensitivity (absorbance, fluorescence intensity) at varying pHs; type: physicochemical; conditions: about 1 μM in 78 mM phosphate buffer, neutral to weakly acidic, approximately pH 4; Ex. 565 nm-Em. 580 nm
# Description: DAR-1T was dissolved in purified water to prepare a solution of a concentration of 100 μM. The solution was added to phosphate buffer (78 mM) adjusted to each pH at a final concentration of about 1 μM, and absorbance and fluorescence intensity were measured. The measurement wavelengths of fluorescence were set to Ex. 565 nm-Em. 580 nm. In the figure, (a) represent the results of the absorptiometric measurement and (b) represents the results of fluorescence intensity measurement.
# [4] = buffer, pH 7.4; cited from earlier work
smiles,measurement,setting,value
"CCOC(=O)c1c(-c2c3ccc(=[N+](CC)CC)cc-3oc3cc(N(CC)CC)ccc23)ccc(N)c1N [DAR-1EE, [9-(3,4-diamino-2-ethoxycarbonylphenyl)-6-diethylamino-3H-xanthen-3-ylidene]diethyliminium]","intracellular fluorescence intensity with time, nitric oxide producing cells","[1]; 10 μM DAR-1EE loaded 1 hour at 37° C., stimulated cells (LPS, INF, IL-1β, TNF-α), 1 mM L-Arg",Fluorescence intensity increased with time
same,"intracellular fluorescence intensity with time, cells producing no nitric oxide (non-stimulated)","[1]; 10 μM DAR-1EE loaded, non-stimulated cells, 1 mM L-Arg",substantially no change in fluorescence intensity
same,"intracellular fluorescence intensity with time, cells added with the NOS inhibitor","[1]; 10 μM DAR-1EE loaded, stimulated cells, 1 mM L-Arg+10 mM NMMA",substantially no change in fluorescence intensity
same,cellular uptake and intracellular hydrolysis,"[1]; 10 μM in KRP, 37° C., 1 hour",uptaken into the cells and hydrolyzed
"CCN(CC)c1ccc2c(-c3ccc4nn[nH]c4c3C(=O)O)c3ccc(=[N+](CC)CC)cc-3oc2c1 [DAR-1T, [9-(7-carboxybenzotriazol-6-yl)-6-diethylamino-3H-xanthen-3-ylidene]diethyliminium]",Maximum wavelength Em.,[2]; emission,580 nm
same,Maximum wavelength Ex.,[2]; excitation,565 nm
same,fluorescence intensity as a function of pH,[3],no changes in fluorescence intensity
CCNCCN(CC)N(O)N=O [NOC-12],half life,[4],5.45 h
